Assay results from ChEMBL document CHEMBL4602723, “Stalobacin: Discovery of Novel Lipopeptide Antibiotics with Potent Antibacterial Activity against Multidrug-Resistant Bacteria” (J Med Chem, 2020).
≈ marks a conversion by molar mass, not a printed value. Calls of active or inactive are those of the source. The rule behind the calls is not given here.

Legend:
Enterococcus faecalis [1] = assay: Antibacterial activity against Vancomycin-resistant Enterococcus faecalis SR23630 (VanB) assessed as inhibition of bacterial growth incubated for 20 hrs by microdilution broth method; assay type: functional; details: SR23630, 20 h
Enterococcus faecium [2] = assay: Antibacterial activity against Vancomycin-resistant Enterococcus faecium SR7940 (VanA) assessed as inhibition of bacterial growth incubated for 20 hrs by microdilution broth method; assay type: functional; details: SR7940, 20 h
Streptococcus pneumoniae [3] = assay: Antibacterial activity against Streptococcus pneumoniae SR11031 (PRSP) assessed as inhibition of bacterial growth incubated for 20 hrs by microdilution broth method; assay type: functional; details: SR11031, 20 h
Staphylococcus aureus [4] = assay: Antibacterial activity against Vancomycin-resistant Staphylococcus aureus HIP11983 assessed as inhibition of bacterial growth incubated for 20 hrs by microdilution broth method; assay type: functional; details: HIP11983, 20 h
Staphylococcus aureus [5] = assay: Antibacterial activity against Vancomycin-resistant Staphylococcus aureus HIP11714 assessed as inhibition of bacterial growth incubated for 20 hrs by microdilution broth method; assay type: functional; details: HIP11714, 20 h
Klebsiella pneumoniae = assay: Antibacterial activity against Klebsiella pneumoniae SR1 assessed as inhibition of bacterial growth incubated for 20 hrs by microdilution broth method; assay type: functional; details: SR1, 20 h
Escherichia coli [6] = assay: Antibacterial activity against Escherichia coli JC2 assessed as inhibition of bacterial growth incubated for 20 hrs by microdilution broth method; assay type: functional; details: JC2, 20 h
Enterococcus faecalis [7] = assay: Antibacterial activity against Enterococcus faecalis SR1004 assessed as inhibition of bacterial growth incubated for 20 hrs by microdilution broth method; assay type: functional; details: SR1004, 20 h
Streptococcus pneumoniae [8] = assay: Antibacterial activity against Streptococcus pneumoniae type 1 assessed as inhibition of bacterial growth incubated for 20 hrs by microdilution broth method; assay type: functional; details: type 1, 20 h
Enterococcus faecium [9] = assay: Antibacterial activity against Vancomycin-resistant Enterococcus faecium SRM1101 (c_VanB) assessed as inhibition of bacterial growth incubated for 20 hrs by microdilution broth method; assay type: functional; details: SRM1101, 20 h
Enterococcus faecium [10] = assay: Antibacterial activity against Vancomycin-resistant Enterococcus faecium SR23598 (VanB) assessed as inhibition of bacterial growth incubated for 20 hrs by microdilution broth method; assay type: functional; details: SR23598, 20 h
Enterococcus faecalis [11] = assay: Antibacterial activity against Vancomycin-resistant Enterococcus faecalis SR7914 (VanA) assessed as inhibition of bacterial growth incubated for 20 hrs by microdilution broth method; assay type: functional; details: SR7914, 20 h
Streptococcus pneumoniae [12] = assay: Antibacterial activity against Streptococcus pneumoniae tupelo (VTSP) assessed as inhibition of bacterial growth incubated for 20 hrs by microdilution broth method; assay type: functional
Enterococcus faecium [13] = assay: Antibacterial activity against Enterococcus faecium SR16972 assessed as inhibition of bacterial growth incubated for 20 hrs by microdilution broth method; assay type: functional; details: SR16972, 20 h
Staphylococcus aureus [14] = assay: Antibacterial activity against Staphylococcus aureus SMITH assessed as inhibition of bacterial growth incubated for 20 hrs by microdilution broth method; assay type: functional
Staphylococcus aureus [15] = assay: Antibacterial activity against Staphylococcus aureus RN4220 assessed as inhibition of bacterial growth incubated for 20 hrs by microdilution broth method; assay type: functional; details: RN4220, 20 h
Staphylococcus aureus [16] = assay: Antibacterial activity against methicillin-resistant Staphylococcus aureus SR3637 assessed as inhibition of bacterial growth incubated for 20 hrs by microdilution broth method; assay type: functional; details: SR3637, 20 h
Staphylococcus aureus [17] = assay: Potency index, ratio of MIC for telavancin to MIC for test compound for antibacterial activity against methicillin-resistant Staphylococcus aureus SR3637; assay type: functional
Staphylococcus aureus [18] = assay: Potency index, ratio of MIC for linezolid to MIC for test compound for antibacterial activity against methicillin-resistant Staphylococcus aureus SR3637; assay type: functional
P388 = assay: Cytotoxicity in mouse P388 cells assessed as reduction in cell viability; assay type: cell-based
Escherichia coli [19] = assay: Induction of morphological changes in Escherichia coli JC2 assessed as inflation of bacterial cell body; assay type: functional, organism-based
L1210 = assay: Cytotoxicity in mouse L1210 cells assessed as reduction in cell viability; assay type: cell-based
Staphylococcus aureus [20] = assay: Induction of morphological changes in Staphylococcus aureus RN4220 assessed as inflation of bacterial cell body; assay type: functional, organism-based
Staphylococcus aureus [21] = assay: Potency index, ratio of MIC for vancomycin to MIC for test compound for antibacterial activity against methicillin-resistant Staphylococcus aureus SR3637; assay type: functional

SMILES	MIC (Enterococcus faecalis [1]) [µg/mL]	MIC (Enterococcus faecium [2]) [µg/mL]	MIC (Streptococcus pneumoniae [3]) [µg/mL]	MIC (Staphylococcus aureus [4]) [µg/mL]	MIC (Staphylococcus aureus [5]) [µg/mL]	MIC (Klebsiella pneumoniae) [µg/mL]	MIC (Escherichia coli [6]) [µg/mL]	MIC (Enterococcus faecalis [7]) [µg/mL]	MIC (Streptococcus pneumoniae [8]) [µg/mL]	MIC (Enterococcus faecium [9]) [µg/mL]	MIC (Enterococcus faecium [10]) [µg/mL]	MIC (Enterococcus faecalis [11]) [µg/mL]	MIC (Streptococcus pneumoniae [12]) [µg/mL]	MIC (Enterococcus faecium [13]) [µg/mL]	MIC (Staphylococcus aureus [14]) [µg/mL]	MIC (Staphylococcus aureus [15]) [µg/mL]	MIC (Staphylococcus aureus [16]) [µg/mL]	also measured
CN[C@H](CC(C)C)C(=O)N[C@H]1C(=O)N[C@@H](CC(N)=O)C(=O)N[C@H]2C(=O)N[C@H]3C(=O)N[C@H](C(=O)N[C@H](C(=O)O)c4cc(O)cc(O)c4-c4cc3ccc4O)[C@H](O)c3ccc(c(Cl)c3)Oc3cc2cc(c3O[C@@H]2O[C@H](CO)[C@@H](O)[C@H](O)[C@H]2O[C@H]2C[C@](C)(N)[C@H](O)[C@H](C)O2)Oc2ccc(cc2Cl)[C@H]1O [VANCOMYCIN]	32 (≈ 22.1 µM)	> 64	0.25 (≈ 0.173 µM)	> 64	> 64	> 64	> 64	1 (≈ 0.69 µM)	0.5 (≈ 0.345 µM)	> 64	> 64	> 64	0.25 (≈ 0.173 µM)					
CC(=O)NC[C@H]1CN(c2ccc(N3CCOCC3)c(F)c2)C(=O)O1 [LINEZOLID]		2 (≈ 5.93 µM)								2 (≈ 5.93 µM)	2 (≈ 5.93 µM)			2 (≈ 5.93 µM)				
CCCCCC/C=C\CCCCC[C@@H]1C[C@H]1/C=C/C(O)C(=O)N[C@H](C(=O)N(C)[C@@H](CC(=O)O)C(=O)N(COC(C)(CC)C(NC(=O)C(NC(=O)[C@@H](N)CC(=O)O)C(O)C(O)CNC(=N)N)C(=O)NCC(=O)N[C@@H](CO)C(=O)O)[C@@]12C[C@@H]1CNC2=O)[C@H](O)C(=O)O (stereo partly drawn)	> 64	2 (≈ 1.56 µM)	0.25 (≈ 0.195 µM)	1 (≈ 0.779 µM)	0.5 (≈ 0.39 µM)	2 (≈ 1.56 µM)	4 (≈ 3.12 µM)	> 64	0.25 (≈ 0.195 µM)	1 (≈ 0.779 µM)	1 (≈ 0.779 µM)	> 64	≤ 0.004	4 (≈ 3.12 µM)	0.5 (≈ 0.39 µM)	0.5 (≈ 0.39 µM)	1 (≈ 0.779 µM)	
CCCCCCCCCCNCCN[C@@]1(C)C[C@H](O[C@H]2[C@H](Oc3c4cc5cc3Oc3ccc(cc3Cl)[C@@H](O)[C@@H](NC(=O)[C@@H](CC(C)C)NC)C(=O)N[C@@H](CC(N)=O)C(=O)N[C@H]5C(=O)N[C@H]3C(=O)N[C@H](C(=O)N[C@H](C(=O)O)c5cc(O)c(CNCP(=O)(O)O)c(O)c5-c5cc3ccc5O)[C@H](O)c3ccc(c(Cl)c3)O4)O[C@H](CO)[C@@H](O)[C@@H]2O)O[C@@H](C)[C@H]1O [TELAVANCIN]	1 (≈ 0.57 µM)	8 (≈ 4.56 µM)	≤ 0.063	4 (≈ 2.28 µM)	4 (≈ 2.28 µM)			1 (≈ 0.57 µM)	≤ 0.063	8 (≈ 4.56 µM)	0.5 (≈ 0.285 µM)	4 (≈ 2.28 µM)	≤ 0.063	0.5 (≈ 0.285 µM)	0.5 (≈ 0.285 µM)	0.5 (≈ 0.285 µM)	1 (≈ 0.57 µM)	
CCCCCC/C=C\CCCCC[C@@H]1C[C@H]1/C=C/C(O)C(=O)N[C@H](C(=O)N(C)[C@@H](CC(=O)O)C(=O)N(COC(C)(CC)C(NC(=O)C(NC(=O)[C@@H](N)CC(=O)O)C(O)C(O)CNC(=N)N)C(=O)NCC(=O)N[C@@H](CO)C(=O)O)[C@@]12C[C@@H]1CN(C(=N)N)C2=O)[C@H](O)C(=O)O (stereo partly drawn)	0.004 (≈ 0.00302 µM)	0.004 (≈ 0.00302 µM)	≤ 0.004	0.004 (≈ 0.00302 µM)	0.004 (≈ 0.00302 µM)	1 (≈ 0.754 µM)	4 (≈ 3.02 µM)	0.008 (≈ 0.00604 µM)	≤ 0.004	0.004 (≈ 0.00302 µM)	0.004 (≈ 0.00302 µM)	0.016 (≈ 0.0121 µM)	≤ 0.004	0.004 (≈ 0.00302 µM)	0.004 (≈ 0.00302 µM)	0.004 (≈ 0.00302 µM)	0.008 (≈ 0.00604 µM)	Ratio (Staphylococcus aureus [17]): 125 - 250; Ratio (Staphylococcus aureus [18]): 125 - 250; IC50 (P388): > 12.5 µg/mL; Activity (Escherichia coli [19]): Active; IC50 (L1210): > 12.5 µg/mL; Activity (Staphylococcus aureus [20]): Active; Ratio (Staphylococcus aureus [21]): 125 - 250
